Reference: patent US20250231157A1, “METHOD FOR DETERMINING THE PARTITION OF NAPHTHENIC ACIDS FROM A PRODUCTION WATER MIMICKING SYSTEM AND MIMICKING SYSTEM” (PETRÓLEO BRASILEIRO S.A. – PETROBRAS, priority 2023, published 2025)
Where “and” joins values, the source holds several entries; their conditions need not be identical. Equal values may be shown once.

Tests used:
[1] = Partition equilibrium in the presence of demulsifiers (Dissolvan 961, Dissolvan 974)
[2] = Partition equilibrium with addition of calcium and strontium salts to the aqueous phase; type: physicochemical; settings: for Migration: salinity 3.5%
Method: The addition of salts to the reaction system is of fundamental importance when one intends to mimic field conditions. In this sense, in addition to continuing the study of the salinity effect (Example 4), the insertion of salts containing Ca^2+ and Sr^2+ ions, known to be present in seawater, was tested. To this end, the projects were based on the literature (Zheng, J. et al. Offshore produced water management: A review of current practice and challenges in harsh/Arctic environments. Mar. Pol. Bul. 2016, 104, 7-19) and four concentrations of each of the two ions were evaluated (400.0, 1200.0, 2600.0 and 9000.0 mg·L^−1), maintaining salinity at 3.5% (m·v^−1).
In short, the experimental results were generated in triplicate, using 99% NaCl to add salinity to the aqueous fraction and PA calcium chloride and PA strontium chloride to add calcium and strontium, respectively.
The addition of calcium and strontium to the reaction system, in the form of salts, aims at mimicking the real scenario in which both species are present (regardless of the salinity of the medium), especially in the well condition. This study aimed at understanding the effect (on the migration of acids to the organic phase) of this ion in the system also at concentrations higher than 10 mM. Finally, the experiments (in triplicate) with divalent strontium ions followed the same rationale.

[3] = Partition equilibrium in reactor pressurized with CO2, in presence and absence of alkalinity (NaHCO3, Na2CO3), back titration
Method: In the initial tests, 100 mL of heptol and 300 mL of water (with or without salinity) were used, with the addition of acidic species in the organic phase, in order to verify migration to the aqueous phase. As a rule, the system was kept under agitation at 500 rpm for 8 min, followed by rest for 10 min and, finally, collection of 50.0 mL aliquots of the aqueous phase for titrimetric analysis.
A 316 stainless steel alloy reactor (Parr®) (capacity for 600 mL and operational up to 20 MPa pressure) was used. For this purpose, a temperature range between 25° C. and 80° C. and pressure between 0.1 MPa and 1.0 MPa were used, and the reactor was pressurized with CO2. Thus, the results were compared (in terms of migration of the acidic species (%, mol) by means of back titrations) and the influence of pressure and temperature on the partition was estimated, as well as possible synergistic effects with the sources of alkalinity added to the aqueous phase.
Previously, the back titration procedure was internalized and optimized (Example 1), ensuring that the reproducibility of the measurements was adequate (standard deviation values below 10%, for example) and that the recoveries were close to what was expected based on the purity of the reagents (i.e., close to or above 90%). […] Control experiments were performed (measuring the availability of the species in an aqueous medium, without using the reactor) by solubilizing the organic acid directly in the aqueous phase and titrating a 10.0 mL aliquot; the same way, experiments were performed in the reactor based on the standardization of heptol and salinity already discussed (3.5%).

[4] = Partition equilibrium (migration to aqueous phase) heptol/water under pressure and temperature, central composite design, potentiometric titration; type: physicochemical; settings: for Migration, Predicted: model value
Method: Three multivariate experimental designs (central composite designs) were performed in which the variables pressure (up to 1 MPa) and temperature (between 25° C. and 80° C.) were considered independent variables, with the migration of three acidic species as the response factor: benzoic, pentanoic and cyclohexanepentanoic acid. For this purpose, 5 levels were defined and gave rise to 10 experiments for each acidic species (Table 4), added to two control experiments (with higher pressure and temperature, as well as in the absence of pressure and at room temperature).
The experiments were performed with constant salinity of 3.5% (m·v^−1), constant heptol fraction (70:30, for heptane and toluene), and acidic species concentration of 0.03 M for benzoic and pentanoic acid, and 0.01 M for cyclohexanepentanoic acid. The results were evaluated with 95% confidence, using a response surface to estimate the maximum observable effect in each case, provided that the mathematical correlation was equal to or greater than R^2: 0.75.

[5] = Partition equilibrium in the presence of surfactants (TBA, CTA, TMA); type: physicochemical
Excerpt: The presence of chemical compounds usually added in the chain of unit operations of oil extraction and production, such as demulsifiers and surfactants, can affect the partition equilibrium of species in this water/oil system. In order to understand the extent of this effect, as well as discern the relevance of the chemical structure on this effect, the following items were chosen: • Dissolvan 961 (Clariant), composed of oil hydrocarbons (CAS 918-811-1) and ethanol (CAS 64-17-5); • Dissolvan 974 (Clariant), composed of EO-PO block polymer poly adducts and Bisphenol-A-diglycidyl ether (CAS 68123-18-2) and ethanol (CAS 64-17-5); • Tetrabutylammonium chloride (CAS 1112-67-0), 97% purity; • Cetyltrimethylammonium chloride (CAS 112-02-7), 25% in water; and • Trimethylammonium chloride (CAS 593-81-7), 98% purity.
For this study, the experiments (in triplicate) used between 100.0 and 1000.0 mg·L^−1 of each compound, comparing the results with control tests (absence of the component), all with constant salinity at 3.5% (m·v^−1). Finally, neutralization titration with a standardized NaOH titrant solution was used to determine the effect on the partition equilibrium for four acidic species (the same as in the other examples, except for dicyclohexylacetic acid).
Considering the study with surfactants, the (individual) addition of three species to the control system was evaluated (tetrabutylammonium chloride (TBA), tetramethylammonium chloride (TMA) and cetyltrimethylammonium chloride (CTA)). For this purpose, the surfactants have distinct chemical structures, namely the size of the side chain, and their eventual effect on the partition equilibrium of the acidic species was evaluated.

[6] = Partition equilibrium under the influence of salinity (NaCl), glass reactor, neutralization titration; type: physicochemical; settings: Salinity 0 (%, m · m^−1) NaCl

O=C(O)CCCCC1CCCCC1 [Cyclohexanepentanoic Acid, cyclohexanepentanoic acid]
Migration ([1]; Absence of ions (no demulsifier), salinity 3.5%): 4.9 %, mol
Migration ([1]; D961 50 mg · L^−1): 5.42 %, mol
Migration ([1]; D961 100 mg · L^−1): 5.16 %, mol
Migration ([1]; D961 1000 mg · L^−1): 10.2 %, mol
Migration ([1]; D974 50 mg · L^−1): 4.78 %, mol
Migration ([1]; D974 100 mg · L^−1): 5.26 %, mol
Migration ([1]; D974 1000 mg · L^−1): 12.80 %, mol
Increase in migration to the aqueous phase with demulsifier ([1]; addition of 1000 mg·L^−1 demulsifier): ~100%
Migration ([2]; Absence of ions): 4.9 %, mol
Migration ([2]; Calcium 400 mg · L^−1): 5.5 %, mol
Migration ([2]; Calcium 1200 mg · L^−1): 4.7 %, mol
Migration ([2]; Calcium 2600 mg · L^−1): 4.8 %, mol
Migration ([2]; Strontium 400 mg · L^−1): 4.4 %, mol
Migration ([2]; Strontium 1200 mg · L^−1): 5.3 %, mol
Migration ([2]; Strontium 2600 mg · L^−1): 4.8 %, mol
Effect of calcium ion on migration to the aqueous phase ([2]; calcium up to the maximum study concentrations): no variation in migration
Effect of strontium ions on migration to the aqueous phase ([2]; strontium 400-2600 mg·L^−1): no effect
Migration ([3]; 25° C. and 1.0 MPa CO2, no alkalinity): not quantifiable
Migration ([3]; 80° C. and 1.0 MPa CO2, no alkalinity): not quantifiable
Migration ([3]; Na2CO3 + NaHCO3, 25° C. and 0.1 MPa): 71.1 % mol
Migration ([3]; Na2CO3 + NaHCO3, 25° C. and 1.0 MPa CO2): 100.0 % mol
Migration ([3]; Na2CO3 + NaHCO3, 80° C. and 1.0 MPa CO2): 100.0 % mol
Migration ([3]; NaHCO3, 25° C. and 0.1 MPa): 82.7 % mol
Migration ([3]; NaHCO3, 25° C. and 1.0 MPa CO2): 100.0 % mol
Migration ([3]; NaHCO3, 80° C. and 1.0 MPa CO2): 100.0 % mol
Migration ([3]; Reference (heptol + 3.5% NaCl), no alkalinity): 4.9 % mol and 4.3 % mol
Migration, Measured ([4]; 20 °C, 0.1 MPa (experiment 12, control)): 4.0 %, mol
Migration, Increment (related to control) ([4]; 25 °C, 0.5 MPa (experiment 5)): −39.73 %, mol
Migration, Measured ([4]; 25 °C, 0.5 MPa (experiment 5)): 2.4 %, mol
Migration, Increment (related to control) ([4]; 38 °C, 0.25 MPa (experiment 1)): −42.22 %, mol
Migration, Measured ([4]; 38 °C, 0.25 MPa (experiment 1), heptol 70:30, 3.5% salinity): 2.3 %, mol
Migration, Increment (related to control) ([4]; 38 °C, 0.75 MPa (experiment 3)): 104.3 %, mol
Migration, Measured ([4]; 38 °C, 0.75 MPa (experiment 3)): 8.2 %, mol
Migration, Increment (related to control) ([4]; 52 °C, 0.1 MPa (experiment 7)): −29.8 %, mol
Migration, Measured ([4]; 52 °C, 0.1 MPa (experiment 7)): 2.8 %, mol
Migration, Measured ([4]; 52 °C, 0.5 MPa (experiments 9 and 10, centre point)): 2.6 %, mol and 3.1 %, mol
Migration, Increment (related to control) ([4]; 52 °C, 1 MPa (experiment 8)): 76.99 %, mol
Migration, Measured ([4]; 52 °C, 1 MPa (experiment 8)): 7.1 %, mol
Migration, Increment (related to control) ([4]; 66 °C, 0.25 MPa (experiment 2)): −37.25 %, mol
Migration, Measured ([4]; 66 °C, 0.25 MPa (experiment 2)): 2.5 %, mol
Migration, Increment (related to control) ([4]; 66 °C, 0.75 MPa (experiment 4)): 106.79 %, mol
Migration, Measured ([4]; 66 °C, 0.75 MPa (experiment 4)): 8.3 %, mol
Migration, Increment (related to control) ([4]; 80 °C, 0.5 MPa (experiment 6)): 157.42 %, mol
Migration, Measured ([4]; 80 °C, 0.5 MPa (experiment 6)): 10.3 %, mol
Migration, Increment (related to control) ([4]; 80 °C, 1 MPa (experiment 11)): −34.77 %, mol
Migration, Measured ([4]; 80 °C, 1 MPa (experiment 11, control)): 2.6 %, mol
Migration, Predicted ([4]; 25 °C, 0.5 MPa (experiment 5)): 4.0 %, mol
Migration, Predicted ([4]; 38 °C, 0.25 MPa (experiment 1)): 1.7 %, mol
Migration, Predicted ([4]; 38 °C, 0.75 MPa (experiment 3)): 5.1 %, mol
Migration, Predicted ([4]; 52 °C, 0.1 MPa (experiment 7)): 1.9 %, mol
Migration, Predicted ([4]; 52 °C, 0.5 MPa (experiments 9 and 10)): 3.5 %, mol
Migration, Predicted ([4]; 52 °C, 1 MPa (experiment 8)): 8.6 %, mol
Migration, Predicted ([4]; 66 °C, 0.25 MPa (experiment 2)): 4.4 %, mol
Migration, Predicted ([4]; 66 °C, 0.75 MPa (experiment 4)): 7.7 %, mol
Migration, Predicted ([4]; 80 °C, 0.5 MPa (experiment 6)): 9.3 %, mol
Migration, Predicted ([4]; 80 °C, 1 MPa (experiment 11)): 8.6 %, mol
Migration ([5]; Absence of surfactant, salinity 3.5%): 4.9 %, mol
Migration ([5]; CTA100 (cetyltrimethylammonium chloride 100 mg · L^−1)): 2.1 %, mol
Migration ([5]; CTA1000 (1000 mg · L^−1)): 38.9 %, mol
Migration ([5]; TBA100 (tetrabutylammonium chloride 100 mg · L^−1)): 18.5 %, mol
Migration ([5]; TBA1000 (1000 mg · L^−1)): 18.4 %, mol
Migration ([5]; TMA100 (trimethylammonium chloride 100 mg · L^−1)): 0.0 %, mol
Migration ([5]; TMA1000 (1000 mg · L^−1)): 0.0 %, mol
Increase in migration to the aqueous phase with CTA ([5]; surfactant CTA, 1000 mg·L^−1): above 700%
Increase in the tendency to migrate to the aqueous phase with TBA ([5]; surfactant TBA, noticeable from 100 mg·L^−1): 370%
Effect of TMA on partition equilibrium ([5]; surfactant TMA): migration tending to zero
Migration [6]: 4.9 %, mol
